Reference: article PMC9133015 (Nature Communications, 2022)
Where “and” joins values, the source holds several entries; their conditions need not be identical. Identical values can stand only once.

Tests used:
PC-3 cells [1] = test: Invasion assay (transwell); type: cell-based, human; settings: for Cell invasion (cell number): PC-3, replicates
DU145 cells [2] = test: Invasion assay (transwell); type: cell-based, human; settings: for Cell invasion (cell number): replicates
PC-3 cells [3] = test: Migration assay (transwell); type: cell-based, human; settings: for Cell migration (cell number): PC-3, replicates
DU145 cells [4] = test: Migration assay (transwell); type: cell-based, human; settings: for Cell migration (cell number): replicates
22Rv1 cells [5] = test: Migration assay (transwell); type: cell-based, human; settings: for Cell migration (cell number): replicates
PC-3 xenograft = test: In vivo antitumor activity, PC-3 xenograft mouse model; design: species or system BALB/c nude mice; settings: for body weight (Figure S10b): 100 mg/kg (block headed at r39); for tumor volume (Figure S10a): 100 mg/kg, in mm³ (unit assumed); for tumor weight (Figure S10c): individual mice
DU145 cells [6] = test: Colony formation assay; type: cell-based, human; settings: replicates
22Rv1 cells [7] = test: Colony formation assay; type: cell-based, human; settings: replicates
PC-3 cells [8] = test: Cell cycle assay (PI flow cytometry); type: cell-based, human; settings: for Cell cycle percentages ( % ) G0/G1 / Cell cycle percentages ( % ) G2/M / Cell cycle percentages ( % ) S: PC-3, replicates
DU145 cells [9] = test: Cell cycle assay (PI flow cytometry); type: cell-based, human; settings: for Cell cycle percentages ( % ) G0/G1 / Cell cycle percentages ( % ) G2/M / Cell cycle percentages ( % ) S: replicates
22Rv1 cells [10] = test: Cell cycle assay (PI flow cytometry); type: cell-based, human; settings: for Cell cycle percentages ( % ) G0/G1 / Cell cycle percentages ( % ) G2/M / Cell cycle percentages ( % ) S: replicates

## CCN1CCN(C(=O)c2ccc(Nc3ncc(F)c(-c4ccc5nc(N(C)C)sc5c4)n3)nc2)CC1 [YK-2-69]
PC-3 cells [1]; 1 µM
  Cell invasion (cell number): 2987 cell number and 3005 cell number and 2946 cell number
PC-3 cells [1]; 2 µM
  Cell invasion (cell number): 2589 cell number and 2699 cell number and 2710 cell number
PC-3 cells [1]; 4 µM
  Cell invasion (cell number): 489 cell number and 503 cell number and 468 cell number
PC-3 cells [1]; PC-3 cells, dose-dependent
  invasion (in words): remarkably inhibited the migration and invasion
DU145 cells [2]; DU145, 2 μM
  Cell invasion (cell number): 340 cell number and 358 cell number and 328 cell number
DU145 cells [2]; DU145, 4 μM
  Cell invasion (cell number): 258 cell number and 240 cell number and 252 cell number
DU145 cells [2]; DU145, 8 μM
  Cell invasion (cell number): 87 cell number and 91 cell number and 82 cell number
DU145 cells [2]; DU145 cells, dose-dependent
  invasion (in words): remarkably inhibited the migration and invasion
PC-3 cells [3]; 1 µM
  Cell migration (cell number): 189 cell number and 176 cell number and 199 cell number
PC-3 cells [3]; 2 µM
  Cell migration (cell number): 110 cell number and 105 cell number and 98 cell number
PC-3 cells [3]; 4 µM
  Cell migration (cell number): 69 cell number and 65 cell number and 74 cell number
PC-3 cells [3]; PC-3 cells, dose-dependent
  migration (in words): remarkably inhibited the migration and invasion
DU145 cells [4]; DU145, 2 μM
  Cell migration (cell number): 3879 cell number and 3920 cell number and 3723 cell number
DU145 cells [4]; DU145, 4 μM
  Cell migration (cell number): 2567 cell number and 2678 cell number and 2788 cell number
DU145 cells [4]; DU145, 8 μM
  Cell migration (cell number): 1578 cell number and 1677 cell number and 1723 cell number
DU145 cells [4]; DU145 cells, dose-dependent
  migration (in words): remarkably inhibited the migration and invasion
22Rv1 cells [5]; 22Rv1, 0.5 μM
  Cell migration (cell number): 1803 cell number and 1758 cell number and 1920 cell number
22Rv1 cells [5]; 22Rv1, 1 μM
  Cell migration (cell number): 710 cell number and 690 cell number and 736 cell number
22Rv1 cells [5]; 22Rv1, 2 μM
  Cell migration (cell number): 422 cell number and 380 cell number and 416 cell number
22Rv1 cells [5]; 22Rv1 cells, dose-dependent
  migration (in words): remarkably inhibited the migration and invasion
PC-3 xenograft; day 1, individual mice
  body weight (Figure S10b): 19.2 (2×) and 18.5 and 18.7 and 18.4 and 18.1 and 19.9 and 20.5
  tumor volume (Figure S10a): 77.4864 and 92.5301 and 97.1283 and 101.268 and 98.0398 and 97.468 and 73.886 and 80.3144
PC-3 xenograft; day 3, individual mice, in g (unit assumed)
  body weight (Figure S10b): 19.3 and 18.8 and 19.1 and 19.6 and 18.7 and 18.5 and 20.2 and 21
PC-3 xenograft; day 5, individual mice, in g (unit assumed)
  body weight (Figure S10b): 19.6 and 19.3 and 19.5 and 20 and 19 and 18.8 and 20.4 and 21.3
PC-3 xenograft; day 7, individual mice
  body weight (Figure S10b): 19.7 and 19.2 (2×) and 19.8 and 20.2 and 19.1 and 20.7 and 21.6
  tumor volume (Figure S10a): 219.658 and 275.568 and 365.875 and 209.513 and 299.159 and 296.64 and 231.386 and 330.578
PC-3 xenograft; day 9, individual mice
  body weight (Figure S10b): 19.9 and 19.6 (2×) and 20.3 and 20.4 and 19.2 and 21.1 and 22.1
  tumor volume (Figure S10a): 329.162 and 379.473 and 478.428 and 304.962 and 429.596 and 486.382 and 340.579 and 484.285
PC-3 xenograft; day 11, individual mice, in g (unit assumed)
  body weight (Figure S10b): 20.2 and 19.8 and 20.6 and 20.7 and 19.9 and 19.6 and 21.5 and 22.4
PC-3 xenograft; day 13, individual mice, in g (unit assumed)
  body weight (Figure S10b): 20.7 and 20.1 and 20.9 and 21 and 20.2 and 19.9 and 22 and 22.7
PC-3 xenograft; day 15, individual mice, in g (unit assumed)
  body weight (Figure S10b): 21.2 and 20.6 and 21.3 and 21.4 and 20.5 and 20.2 and 22.4 and 23.1
PC-3 xenograft; day 17, individual mice
  body weight (Figure S10b): 21.5 (2×) and 20.9 and 21.7 and 20.7 and 20.5 and 22.6 and 23.4
  tumor volume (Figure S10a): 566.789 and 632.783 and 710.893 and 478.638 and 663.313 and 687.885 and 541.191 and 725.155
PC-3 xenograft; day 19, individual mice
  body weight (Figure S10b): 21.6 and 21.3 and 22.1 and 21.8 and 20.9 (2×) and 22.9 and 23.6
  tumor volume (Figure S10a): 626.915 and 695.75 and 762.842 and 529.26 and 724.582 and 714.002 and 593.545 and 775.769
PC-3 xenograft; day 21, individual mice, in g (unit assumed)
  body weight (Figure S10b): 21.9 and 21.7 and 22.5 and 22 and 21.1 and 20.9 and 23.3 and 24.1
PC-3 xenograft; day 23, individual mice, in g (unit assumed)
  body weight (Figure S10b): 22.2 and 21.9 and 22.8 and 22.5 and 21.6 and 21.2 and 23.7 and 24.4
PC-3 xenograft; day 25, individual mice, in g (unit assumed)
  body weight (Figure S10b): 22.4 and 22.2 and 23 and 22.9
PC-3 xenograft; day 3, individual mice
  tumor volume (Figure S10a): 115.765 and 144.425 and 170.933 and 124.316 and 162.987 and 146.332 and 130.957 and 150.238
PC-3 xenograft; day 5, individual mice
  tumor volume (Figure S10a): 154.192 and 209.47 and 269.793 and 167.67 and 219.907 and 205.492 and 169.178 and 227.654
PC-3 xenograft; day 11, individual mice
  tumor volume (Figure S10a): 425.31 and 450.313 and 557.222 and 355.841 and 497.266 and 558.451 and 389.654 and 598.443
PC-3 xenograft; day 13, individual mice
  tumor volume (Figure S10a): 470.277 and 505.24 and 614.643 and 398.947 and 552.456 and 554.825 and 438.407 and 647.336
PC-3 xenograft; day 15, individual mice
  tumor volume (Figure S10a): 505.825 and 567.155 and 666.998 and 434.631 and 595.348 and 608.437 and 469.076 and 655.028
PC-3 xenograft; day 21, individual mice
  tumor volume (Figure S10a): 664.022 and 757.202 and 792.305 and 567.096 and 783.549 and 751.035 and 675.845 and 837.844
PC-3 xenograft; day 23, individual mice
  tumor volume (Figure S10a): 712.611 and 799.725 and 853.619 and 600.587 and 832.37 and 731.016 and 739.798 and 963.73
PC-3 xenograft; day 25, individual mice
  tumor volume (Figure S10a): 761.381 and 859.669 and 897.54 and 641.932
PC-3 xenograft; High dose, in g (unit assumed)
  tumor weight (Figure S10c): 0.61 and 0.52 and 0.5 and 0.55 and 0.62 and 0.53 and 0.74 and 0.7
PC-3 xenograft; Low dose, in g (unit assumed)
  tumor weight (Figure S10c): 0.79 and 0.89 and 1.1 and 0.91 and 0.71 and 0.92 and 0.81 and 0.88
PC-3 xenograft; PC-3 xenograft, 100 or 200 mg/kg orally every day
  tumor growth (in words): significantly inhibited tumor growth
PC-3 xenograft; PC-3 xenograft, high dose (200 mg/kg)
  tumor volume (in words): decrease tumor volume
DU145 cells [6]; DU145, 2 μM
  Colony formation (cell number): 70 cell number and 67 cell number and 77 cell number
DU145 cells [6]; DU145, 4 μM
  Colony formation (cell number): 40 cell number and 38 cell number and 35 cell number
DU145 cells [6]; DU145, 8 μM
  Colony formation (cell number): 15 cell number and 12 cell number and 10 cell number
22Rv1 cells [7]; 22Rv1, 0.5 μM
  Colony formation (cell number): 93 cell number and 88 cell number and 94 cell number
22Rv1 cells [7]; 22Rv1, 1 μM
  Colony formation (cell number): 40 cell number and 56 cell number and 58 cell number
22Rv1 cells [7]; 22Rv1, 2 μM
  Colony formation (cell number): 10 cell number and 9 cell number and 13 cell number
PC-3 cells [8]; 0.5 µM
  Cell cycle percentages ( % ) G0/G1: 55.96% and 58.42% and 57.82%
  Cell cycle percentages ( % ) G2/M: 27.56% and 26.05% and 24.61%
  Cell cycle percentages ( % ) S: 16.48% and 15.53% and 17.57%
PC-3 cells [8]; 1 µM
  Cell cycle percentages ( % ) G0/G1: 58.52% and 60.06% and 62.96%
  Cell cycle percentages ( % ) G2/M: 26.02% and 25.73% and 24.02%
  Cell cycle percentages ( % ) S: 15.46% and 14.21% and 13.02%
PC-3 cells [8]; 2 µM
  Cell cycle percentages ( % ) G0/G1: 64.67% and 62.48% and 65.02%
  Cell cycle percentages ( % ) G2/M: 24.12% and 24.24% and 22.16%
  Cell cycle percentages ( % ) S: 11.21% and 13.28% and 12.82%
PC-3 cells [8]; PC-3 cells, concentration-dependent
  cell cycle (in words): arrested cell cycle at the G0/G1 phase
DU145 cells [9]; DU145, 2 μM
  Cell cycle percentages ( % ) G0/G1: 55.97% and 56.66% and 57.2%
  Cell cycle percentages ( % ) G2/M: 25.7% and 23.86% and 21.92%
  Cell cycle percentages ( % ) S: 18.33% and 19.48% and 20.88%
DU145 cells [9]; DU145, 4 μM
  Cell cycle percentages ( % ) G0/G1: 57.12% and 58.35% and 59.96%
  Cell cycle percentages ( % ) G2/M: 23.02% and 22.58% and 21.06%
  Cell cycle percentages ( % ) S: 19.86% and 19.07% and 18.98%
DU145 cells [9]; DU145, 8 μM
  Cell cycle percentages ( % ) G0/G1: 61.67% and 60.91% and 63.23%
  Cell cycle percentages ( % ) G2/M: 18.53% and 21.24% and 18.93%
  Cell cycle percentages ( % ) S: 19.8% and 17.85% and 17.84%
DU145 cells [9]; DU145 cells, concentration-dependent
  cell cycle (in words): arrested cell cycle at the G0/G1 phase
22Rv1 cells [10]; 22Rv1, 0.5 μM
  Cell cycle percentages ( % ) G0/G1: 58.59% and 61.06% and 63.23%
  Cell cycle percentages ( % ) G2/M: 21.63% and 20.2% and 19.61%
  Cell cycle percentages ( % ) S: 19.78% and 18.74% and 17.16%
22Rv1 cells [10]; 22Rv1, 1 μM
  Cell cycle percentages ( % ) G0/G1: 66.26% and 67.95% and 69.26%
  Cell cycle percentages ( % ) G2/M: 16.83% and 16.42% and 15%
  Cell cycle percentages ( % ) S: 16.91% and 15.43% and 15.74%
22Rv1 cells [10]; 22Rv1, 2 μM
  Cell cycle percentages ( % ) G0/G1: 71.88% and 73.05% and 74.35%
  Cell cycle percentages ( % ) G2/M: 13.63% and 11.7% and 11.68%
  Cell cycle percentages ( % ) S: 14.49% and 15.25% and 13.97%
22Rv1 cells [10]; 22Rv1 cells, concentration-dependent
  cell cycle (in words): arrested cell cycle at the G0/G1 phase
